Where two headings read alike, the source gives them in different places.
Columns and labels:
[1] = cited from earlier work
Method: The difference in detectable time in the urine can be explained by the low level of internal exposure (amatoxins in the blood). […] The daily amounts of peptide toxins excreted in urine in beagles without biliary drainage(mg). Time after α-Amanitin β-Amanitin Phallacidin ingestion 20 mg/kg 60 mg/kg 20 mg/kg 60 mg/kg 20 mg/kg 60 mg/kg group group group group group group 0-1d 0.0379 0.0593 0.0156 0.0251 0.0035 0.0088 (97.9%) (92.8%) (99.9%) (94.7%) (94.2%) (76%) 1-2d 0.0388 0.0618 0.01567 0.0255 0.0037 0.0110 (99.995%) (97.5%) (100%) (96.2%) (100%) (93%) 2-3d 0.0002 0.0626 0 0.0260 0 0.0115 (100%) (99.4%) (100%) (98.2%) (100%) (97.3%) 3-4d 0 0.063 ...

[2] = Peptide toxins in the urine of beagles with biliary drainage; assay type: in vivo, beagle dogs; conditions: for Total (accumulated) amount excreted in urine / percentage of total urine excretion, Total: 0–4 days
Method: The study was approved by National Institute of Occupational Health and Poison Control review board for animal experiments. Twenty-four male beagles (age, 8–10 months; weight, 10 ± 1 kg) were obtained from Beijing Institute of Xieerxin Biology Resource (Beijing, China). They were randomly divided into four groups of six animals each: control, biliary drainage, and 20 and 60 mg/kg with biliary drainage groups. The biliary drainage operation was conducted in all groups barring the control group. The dogs were dressed in homemade underwear, coats, and Elizabeth circles for a week to ensure pre-experimental acclimatization (Figure S8a–c). After determining the baseline values for biochemical indicators, the dogs were fasted for 24 h but received water ad libitum. They were anesthetized by intravenous administration of pentobarbital sodium (3%, 1 mL/kg) during the surgery. A temperature of 38–39 °C was maintained with a warming mat. After skin preservation and sterilization, the abdominal cavity was opened through the central abdomen. The abdomen was explored and blunt dissection of the common bile duct was performed (Figure S8d). The common bile duct and its branches were ligated from the intestinal side. A 7.0-Fr drainage catheter (COOK, Bloomington, IN, USA) was percutaneously inserted into the gallbladder, and a medical drainage bag was connected to the drainage catheter coming out of the abdominal cavity. Each opened layer, including the peritoneum, abdominal wall muscle, and skin, was closed with suture. The operative incision was protected with sterile gauze and a bandage, and the dogs were dressed in homemade underwear, coats, and Elizabeth circles. The drainage bag was placed in the pocket of the coat (Figure S8e). After the anesthetic wore off, the dogs were placed in cages, and food and water were provided ad libitum. The operative incision was sterilized with iodophor twice a day until stitches were removed six days after surgery. The drainage bag was replaced every day. On the eighth day after surgery, the 20 and 60 mg/kg with biliary drainage groups were orally administered a lyophilized powder of Amanita exitialis in starch capsules. In control and bile drainage group, the beagle dogs were fed with empty capsules. Immediately after dosing, the animals were placed in their cages, and food and water were provided ad libitum. Dogs were sacrificed with an overdose of sodium pentobarbital at the end of the experiment. All procedures were performed according to the ethical standards of the National Institutes of Health Guide for Animal Welfare and approved by the Institutional Animal Care and Use Committee (EAWE-2017-005).
Peptide toxins in blood and urine samples were analyzed as described previously. Bile samples from Days 0–1, Days 1–2, Days 2–3, and Days 3–4 were collected and stored in medical drainage bags and the bile volume was recorded. Plasma and urine samples were stored at 2–8 °C until analysis for peptide toxins.
UPLC and MS/MS parameters were as described in our previous study. The limit of detection and limit of quantitation of each toxin in the bile were 0.03 mg/kg and 0.5 mg/kg, respectively.

[3] = 20 mg/kg with biliary drainage group
[4] = 60 mg/kg with biliary drainage group
[5] = 1–2 days, 20 mg/kg with biliary drainage group
[6] = 1–2 days, 60 mg/kg with biliary drainage group
[7] = 2–3 days, 20 mg/kg with biliary drainage group
[8] = 2–3 days, 60 mg/kg with biliary drainage group
[9] = 3-4d, 20 mg/kg with biliary drainage group
[10] = 3-4d, 60 mg/kg with biliary drainage group
[11] = 3–4 days, 20 mg/kg with biliary drainage group
[12] = 3–4 days, 60 mg/kg with biliary drainage group

SMILES: CC[C@H](C)[C@@H]1NC(=O)CNC(=O)[C@@H]2Cc3c([nH]c4cc(O)ccc34)[S@+]([O-])C[C@H](NC(=O)CNC1=O)C(=O)N[C@@H](CC(N)=O)C(=O)N1C[C@H](O)C[C@H]1C(=O)N[C@@H]([C@@H](C)[C@@H](O)CO)C(=O)N2 [α-amanitin]
- daily amount excreted in urine, without biliary drainage ([1]; 0-1d, 20 mg/kg group): 0.0379 mg
- percentage in parentheses, urine, without biliary drainage ([1]; 0-1d, 20 mg/kg group): 97.9%
- daily amount excreted in urine, without biliary drainage ([1]; 0-1d, 60 mg/kg group): 0.0593 mg
- percentage in parentheses, urine, without biliary drainage ([1]; 0-1d, 60 mg/kg group): 92.8%
- Accumulative amount excreted in urine, without biliary drainage ([1]; 20 mg/kg group): 0.039 mg
- percentage in parentheses, Accumulative amount, urine, without biliary drainage ([1]; 20 mg/kg group): 100%
- Accumulative amount excreted in urine, without biliary drainage ([1]; 20 mg/kg group, listed as α-Amanitin): 0.0390 mg
- Accumulative amount excreted in urine, without biliary drainage ([1]; 60 mg/kg group): 0.0630 mg
- percentage in parentheses, Accumulative amount, urine, without biliary drainage ([1]; 60 mg/kg group): 100%
- percentage in parentheses, urine, without biliary drainage ([1]; 1-2d, 20 mg/kg group): 99.995%
- daily amount excreted in urine, without biliary drainage ([1]; 1-2d, 60 mg/kg group): 0.0618 mg
- percentage in parentheses, urine, without biliary drainage ([1]; 1-2d, 60 mg/kg group): 97.5%
- daily amount excreted in urine, without biliary drainage ([1]; 2-3d, 20 mg/kg group): 0.0002 mg
- percentage in parentheses, urine, without biliary drainage ([1]; 2-3d, 20 mg/kg group): 100%
- daily amount excreted in urine, without biliary drainage ([1]; 2-3d, 60 mg/kg group): 0.0626 mg
- percentage in parentheses, urine, without biliary drainage ([1]; 2-3d, 60 mg/kg group): 99.4%
- daily amount excreted in urine, without biliary drainage ([1]; 3-4d, 20 mg/kg group): 0 mg
- percentage in parentheses, urine, without biliary drainage ([1]; 3-4d, 20 mg/kg group): 100%
- daily amount excreted in urine, without biliary drainage ([1]; 3-4d, 60 mg/kg group): 0.0630 mg
- percentage in parentheses, urine, without biliary drainage ([1]; 3-4d, 60 mg/kg group): 100%
- detection rate of peptide toxins in urine ([2]; 0-1 d, 60 mg/kg with biliary drainage group): 100%
- daily amount excreted in urine ([2]; 0–1 days, 20 mg/kg with biliary drainage group): 0.0147 mg
- percentage of total urine excretion excreted daily ([2]; 0–1 days, 20 mg/kg with biliary drainage group, 20 mg/kg): more than 90%
- percentage of total urine excretion excreted daily ([2]; 0–1 days, 20 mg/kg with biliary drainage group, listed as α-Amanitin, 20 mg/kg): 96.3%
- daily amount excreted in urine ([2]; 0–1 days, 60 mg/kg with biliary drainage group): 0.0213 mg
- percentage of total urine excretion excreted daily ([2]; 0–1 days, 60 mg/kg with biliary drainage group, 60 mg/kg): more than 90%
- percentage of total urine excretion excreted daily ([2]; 0–1 days, 60 mg/kg with biliary drainage group, listed as α-Amanitin, 60 mg/kg): 90.9%
- Total (accumulated) amount excreted in urine [2, 3]: 0.0151 mg
- percentage of total urine excretion, Total [2, 3]: 100%
- Total (accumulated) amount excreted in urine [2, 4]: 0.0222 mg
- percentage of total urine excretion, Total [2, 4]: 100%
- time within which toxin was detected in urine [2, 3]: two
- time within which toxin was detected in urine [2, 4]: three
- detection rate of peptide toxins in urine ([2]; 1-2 d, 20 mg/kg with biliary drainage group): 100%
- detection rate of peptide toxins in urine ([2]; 1-2 d, 60 mg/kg with biliary drainage group): 100%
- daily amount excreted in urine [2, 5]: 0.0004 mg
- percentage of total urine excretion excreted daily [2, 5]: 3.7%
- daily amount excreted in urine [2, 6]: 0.0007 mg
- percentage of total urine excretion excreted daily [2, 6]: 8.9%
- detection rate of peptide toxins in urine ([2]; 2-3 d, 20 mg/kg with biliary drainage group): 0%
- toxin content in urine ([2]; 2-3d, 20 mg/kg with biliary drainage group, mean ± SD): 0 µg/L
- detection rate of peptide toxins in urine ([2]; 2-3 d, 60 mg/kg with biliary drainage group): 50%
- daily amount excreted in urine [2, 7]: 0(0%) mg
- percentage of total urine excretion excreted daily [2, 7]: 0(0%)
- daily amount excreted in urine [2, 8]: 0.0001 mg
- percentage of total urine excretion excreted daily [2, 8]: 0.2%
- detection rate of peptide toxins in urine [2, 9]: 0%
- toxin content in urine [2, 9]: 0 µg/L
- detection rate of peptide toxins in urine [2, 10]: 0%
- toxin content in urine [2, 10]: 0 µg/L
- daily amount excreted in urine [2, 11]: 0(0%) mg
- percentage of total urine excretion excreted daily [2, 11]: 0(0%)
- daily amount excreted in urine [2, 12]: 0(0%) mg
- percentage of total urine excretion excreted daily [2, 12]: 0(0%)
- share of total urine excretion in the 0–2-day urine ([2]; beagles with biliary drainage, both dose groups): more than 95%
